Source: ChEMBL document CHEMBL1201862, “PubChem BioAssay data set” (2004)
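Briefly, cells in 96-well plates were exposed to five compound concentrations for 48 h, and endpoints were estimated by linear interpolation. At the GI50, growth is halved.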 Activity calls are given as the source filed them. No stated cut-off is given here; in the data, active = GI50 up to about 1.1 µM and inactive = higher.

What was measured:
Assay in all cases: NCI-60 cell line screen, 48 h
786-0 = test system: 786-0
CCRF-CEM = test system: CCRF-CEM
HOP-62 = test system: HOP-62
HT-29 = test system: HT-29
IGROV-1 = test system: IGROV-1
NCI-H23 = test system: NCI-H23
OVCAR-8 = test system: OVCAR-8
SF-268 = test system: SF-268
SF-295 = test system: SF-295
SK-MEL-28 = test system: SK-MEL-28
SK-MEL-5 = test system: SK-MEL-5
U-251 = test system: U-251
UACC-257 = test system: UACC-257
CAKI-1 = test system: CAKI-1
OVCAR-3 = test system: OVCAR-3
UACC-62 = test system: UACC-62
HOP-92 = test system: HOP-92
OVCAR-4 = test system: OVCAR-4

Row | SMILES | GI50 (786-0) | GI50 (CCRF-CEM) | GI50 (HOP-62) | GI50 (HT-29) | GI50 (IGROV-1) | GI50 (NCI-H23) | GI50 (OVCAR-8) | GI50 (SF-268) | GI50 (SF-295) | GI50 (SK-MEL-28) | GI50 (SK-MEL-5) | GI50 (U-251) | GI50 (UACC-257) | GI50 (CAKI-1) | GI50 (OVCAR-3) | GI50 (UACC-62) | GI50 (HOP-92) | GI50 (OVCAR-4)
1 | Cc1ccc(C2=C(c3ccccc3)C(=O)C(c3ccccc3)=C2c2ccc(C)cc2)cc1 | 34.8 µM (inactive) | 17.2 µM (inactive) | > 100 µM (inactive) | 33.5 µM (inactive) | > 100 µM (inactive) | 31.1 µM (inactive) | 73.6 µM (inactive) | 32.1 µM (inactive) | 18.4 µM (inactive) | 21.9 µM (inactive) | 55.1 µM (inactive) | 25.1 µM (inactive) | 39.4 µM (inactive) | – | – | – | – | –
2 | CSc1nc2nc(C(O)C(O)C(O)CO)cnc2c(=O)[nH]1 (stereo not drawn) | > 100 µM (inactive) | > 100 µM (inactive) | > 100 µM (inactive) | > 100 µM (inactive) | > 100 µM (inactive) | > 100 µM (inactive) | > 100 µM (inactive) | > 100 µM (inactive) | > 100 µM (inactive) | > 100 µM (inactive) | > 100 µM (inactive) | > 100 µM (inactive) | > 100 µM (inactive) | > 100 µM (inactive) | 34 µM (inactive) | > 100 µM (inactive) | – | –
3 | CCOC(=O)Cn1c(=O)n(C)c(=O)c2c1ncn2Cc1ccccc1 | > 100 µM (inactive) | > 100 µM (inactive) | > 100 µM (inactive) | > 100 µM (inactive) | > 100 µM (inactive) | > 100 µM (inactive) | > 100 µM (inactive) | > 100 µM (inactive) | – | > 100 µM (inactive) | > 100 µM (inactive) | > 100 µM (inactive) | – | > 100 µM (inactive) | > 100 µM (inactive) | > 100 µM (inactive) | > 100 µM (inactive) | –
4 | CC(Oc1ccc(OCC2CCCCC2)cc1)C(=O)NCCO (stereo not drawn) | > 100 µM (inactive) | > 100 µM (inactive) | – | 99.3 µM (inactive) | > 100 µM (inactive) | 15.7 µM (inactive) | > 100 µM (inactive) | > 100 µM (inactive) | 23.4 µM (inactive) | > 100 µM (inactive) | > 100 µM (inactive) | > 100 µM (inactive) | 49.7 µM (inactive) | – | 64.9 µM (inactive) | > 100 µM (inactive) | – | > 100 µM (inactive)
5 | CCOC(=O)NC(=O)c1cn(CCN2CCN(C(=O)CCCCCCCCCCNc3ncnc4c3ncn4C3OC(CO)C(O)C3O)CC2)c(=O)[nH]c1=O (stereo not drawn) | > 100 µM (inactive) | > 100 µM (inactive) | > 100 µM (inactive) | > 100 µM (inactive) | > 100 µM (inactive) | > 100 µM (inactive) | > 100 µM (inactive) | > 100 µM (inactive) | > 100 µM (inactive) | > 100 µM (inactive) | > 100 µM (inactive) | > 100 µM (inactive) | > 100 µM (inactive) | > 100 µM (inactive) | – | > 100 µM (inactive) | 70.3 µM (inactive) | –
6 | COc1ccc([C@@H]2CC(=O)N2)cc1 | > 100 µM (inactive) | > 100 µM (inactive) | > 100 µM (inactive) | > 100 µM (inactive) | > 100 µM (inactive) | > 100 µM (inactive) | > 100 µM (inactive) | > 100 µM (inactive) | > 100 µM (inactive) | > 100 µM (inactive) | > 100 µM (inactive) | > 100 µM (inactive) | > 100 µM (inactive) | > 100 µM (inactive) | – | > 100 µM (inactive) | > 100 µM (inactive) | > 100 µM (inactive)
7 | COc1ccc(/C=N\O[Si](C)(C)C(C)(C)C)cc1O[Si](C)(C)C(C)(C)C | 16.7 µM (inactive) | 21.6 µM (inactive) | 20.2 µM (inactive) | 17.7 µM (inactive) | 18.9 µM (inactive) | 19.4 µM (inactive) | 22.8 µM (inactive) | 21.5 µM (inactive) | 17.2 µM (inactive) | – | 17.3 µM (inactive) | 19.7 µM (inactive) | 20.8 µM (inactive) | 25.1 µM (inactive) | 17.1 µM (inactive) | 18.8 µM (inactive) | 22.6 µM (inactive) | 19 µM (inactive)
8 | O=C1CCN(CCC(F)(F)C(F)(F)C(F)(F)C(F)(F)F)C(=S)N1 | > 100 µM (inactive) | > 100 µM (inactive) | > 100 µM (inactive) | > 100 µM (inactive) | > 100 µM (inactive) | > 100 µM (inactive) | > 100 µM (inactive) | > 100 µM (inactive) | > 100 µM (inactive) | > 100 µM (inactive) | > 100 µM (inactive) | > 100 µM (inactive) | – | – | > 100 µM (inactive) | > 100 µM (inactive) | – | > 100 µM (inactive)
9 | Cc1[nH]nc2c1C(=O)C=C(N(CCO)c1ccccc1)C2=O | > 100 µM (inactive) | > 100 µM (inactive) | – | > 100 µM (inactive) | > 100 µM (inactive) | > 100 µM (inactive) | > 100 µM (inactive) | – | > 100 µM (inactive) | > 100 µM (inactive) | > 100 µM (inactive) | > 100 µM (inactive) | > 100 µM (inactive) | > 100 µM (inactive) | > 100 µM (inactive) | > 100 µM (inactive) | > 100 µM (inactive) | –
10 | COC(=O)c1cc(OC(C)=O)c2c(OC)ccc(OC)c2c1 | > 100 µM (inactive) | – | – | 47.9 µM (inactive) | > 100 µM (inactive) | > 100 µM (inactive) | > 100 µM (inactive) | – | > 100 µM (inactive) | > 100 µM (inactive) | > 100 µM (inactive) | > 100 µM (inactive) | > 100 µM (inactive) | > 100 µM (inactive) | > 100 µM (inactive) | > 100 µM (inactive) | > 100 µM (inactive) | > 100 µM (inactive)
11 | CC(C)=CC(=O)Cc1nc2cc(C)c(C)cc2[nH]c1=O | > 100 µM (inactive) | > 100 µM (inactive) | 17.9 µM (inactive) | > 100 µM (inactive) | > 100 µM (inactive) | > 100 µM (inactive) | – | 99.3 µM (inactive) | 90.4 µM (inactive) | > 100 µM (inactive) | > 100 µM (inactive) | > 100 µM (inactive) | > 100 µM (inactive) | > 100 µM (inactive) | > 100 µM (inactive) | > 100 µM (inactive) | 24.9 µM (inactive) | 87.1 µM (inactive)
12 | CCN(CC)CCNC(=O)c1cccc2nc3ccccc3nc12 | 27 µM (inactive) | – | 13.2 µM (inactive) | 4.55 µM (inactive) | 38.3 µM (inactive) | 13.7 µM (inactive) | 14 µM (inactive) | 0.318 µM (active) | 11 µM (inactive) | 17.5 µM (inactive) | > 46 µM (inactive) | 16.9 µM (inactive) | 7.26 µM (inactive) | > 39.3 µM (inactive) | 8.34 µM (inactive) | 18.9 µM (inactive) | 38.4 µM (inactive) | 12.8 µM (inactive)
13 | CC(=O)NNc1nc(C)c(C(/C=C/c2ccc(Cl)cc2)=N/NC(=S)NN)s1 | > 100 µM (inactive) | > 100 µM (inactive) | > 100 µM (inactive) | > 100 µM (inactive) | > 100 µM (inactive) | > 100 µM (inactive) | > 100 µM (inactive) | > 100 µM (inactive) | > 100 µM (inactive) | > 100 µM (inactive) | > 100 µM (inactive) | > 100 µM (inactive) | > 100 µM (inactive) | > 100 µM (inactive) | – | > 100 µM (inactive) | > 100 µM (inactive) | > 100 µM (inactive)
14 | COC(=O)c1cc(C)c(C)c2c1NC(=O)CNC2=O | > 100 µM (inactive) | > 100 µM (inactive) | > 100 µM (inactive) | > 100 µM (inactive) | > 100 µM (inactive) | > 100 µM (inactive) | > 100 µM (inactive) | – | > 100 µM (inactive) | > 100 µM (inactive) | – | > 100 µM (inactive) | > 100 µM (inactive) | > 100 µM (inactive) | > 100 µM (inactive) | > 100 µM (inactive) | – | > 100 µM (inactive)
15 | Cn1c2c(c3ccccc31)CCN(CCCN1CCN(c3cccc(Cl)c3)CC1)C2=O | 17.1 µM (inactive) | 31.5 µM (inactive) | 18.7 µM (inactive) | 12.5 µM (inactive) | 26.4 µM (inactive) | 19.5 µM (inactive) | 23.7 µM (inactive) | 15.6 µM (inactive) | – | 17.4 µM (inactive) | 15.1 µM (inactive) | 3.27 µM (inactive) | – | 20.8 µM (inactive) | – | 17.4 µM (inactive) | 3.91 µM (inactive) | –
16 | CC1OC(=O)N(CCCC=C2SCCCS2)C1=O (stereo not drawn) | > 100 µM (inactive) | > 100 µM (inactive) | – | > 100 µM (inactive) | > 100 µM (inactive) | > 100 µM (inactive) | > 100 µM (inactive) | > 100 µM (inactive) | > 100 µM (inactive) | > 100 µM (inactive) | – | > 100 µM (inactive) | > 100 µM (inactive) | – | > 100 µM (inactive) | > 100 µM (inactive) | > 100 µM (inactive) | > 100 µM (inactive)
17 | COc1cc(C(=O)O)cc2c1[nH]c1ccccc12 [MUKOEIC ACID] | > 25 µM (inactive) | > 25 µM (inactive) | > 25 µM (inactive) | > 25 µM (inactive) | > 25 µM (inactive) | – | > 25 µM (inactive) | > 25 µM (inactive) | – | > 25 µM (inactive) | > 25 µM (inactive) | > 25 µM (inactive) | – | – | > 25 µM (inactive) | > 25 µM (inactive) | > 25 µM (inactive) | > 25 µM (inactive)
